Source: patent US20230203126A1, “A COMPOSITION COMPRISING S-ARRESTIN PEPTIDES” (WORG PHARMACEUTICALS (HANGZHOU) CO., LTD., priority 2019, published 2023)
No end group written: not given here.

What was measured:
[1] = test system: SAg-specific hybridoma cells with fresh or fixed APC (VAVY) cells, MHCII; assay: Antigen processing independent presentation system (APIPS) assay; type: cell-based, DR3tg mice; conditions: 10 or 25 µg/ml peptide, IL-2 ELISA after 48 h
Procedure: FIG. 10: Variants of peptide 15N3K are apitopes. The ability of variants of the 15N3K peptide to behave as apitopes (i.e. bind to an MHCII molecule and be presented to a T cell by an antigen-presenting cell without undergoing antigen processing) was tested using an APIPS assay. DR3tg mice were immunised with SAg and hybridoma’s were generated. 5*10^4 SAg-specific hybridoma cells were cultured with 5*10^4 fresh or fixed commercial APC (VAVY) cells. Cultures were stimulated with 10 or 25 µg/ml of peptide, as indicated in the graph. T cell activation was measured by IL-2 ELISA on supernatants collected after 48 h. The graph represents the mean of duplicate measurements ± SEM.
Apitopes (Antigen Processing-Independent epiTOPES) are capable of binding to an MHCII molecule and stimulating a response from SAg-specific T cells without further antigen processing. Variants of peptide 15N3K (SEQ ID NO: 3) were tested for their ability to bind to an MHCII molecule and be presented to a T cell hybridoma without further antigen processing in an in vitro antigen processing independent presentation system (APIPS) assay. In other words, peptides consisting of parts of peptide 15N3K and peptides with various degrees of sequence identity with peptide 15N3K were tested for their ability to behave as apitopes.
All but three of the peptides are apitopes.
Antigen-specific hybridoma clones were tested for their reactivity to the peptides, presented by fixed or not fixed (fresh) cells (APCs). 5x10^4 cells were cultured with 10 µg/ml and 25 µg/ml peptide and 5x10^4 fixed or fresh APCs. To fix APCs, cells were incubated with 0.5% paraformaldehyde (Merck, Darmstadt, Germany) (pH7) for 5 min at room temperature (RT). The fixation reaction was stopped by adding 0.4 M glycine (Sigma-Aldrich) and washing the cells in RPMI-10% FCS. After 48 h, antigen-induced IL-2 production was measured by ELISA (R&D Systems, Abingdon, UK).

[2] = biological target: HLA-DRA1*0101, DRB1*0301 (DR3) (Homo sapiens, UniProt P01903+P01911, A100K/A102G/A103R/A169T/F55Y/I96L/K41T/L162R/M171V/P40S/Q125H/Q178H/Q39Y/R42S/S66N/T106N/T262R/W38E/Y61H); assay: DR3
Procedure: (§1) Table printed on a drawing sheet, Figure 9
(§2) The patent's description of the figure: FIG. 9: Diverse patterns of in vitro peptide-MHC II binding for peptides 9K1, 17JK and 15N3K. Binding of peptides 9K1, 17JK and 15N3K to recombinant HLA-DRA1*0101, DRB1*0101 (DR1), DRB1*1501 (DR2), DRB1*0301 (DR3), DRB1*0401 (DR4), DRB1*1101 (DR11), DRB1*0405 (DR4*05) and DRB1*0901 (DR9) was assessed in vitro. IC50 values (µM) are presented and colour-coded per HLA-DR molecule. Low values (green) indicate strong binding, high values (red) indicate low(er) binding.
(§3) FIG. 9 depicts IC50 (µM) values of peptides 9K1K, 17JK and 15N3K binding to the indicated HLA-DR molecules and competing with a known competitor peptide. Values should be compared only within each HLA-DR molecule. Low IC50 values (green) indicate the strongest binder per HLA-DR molecule. Highest values per HLA-DR molecule (red) are indicative of the lowest binder for that HLA-DR molecule. Intermediate values are indicated in orange. […]
(§4) First copying reader's note: The sheet prints no unit; per the patent description the values are IC50 (µM) for peptide binding to the named HLA-DR molecules, with cell shading coding relative binding strength per HLA-DR molecule.
Where the first naming reader finds the target: description_of_the_figure: recombinant HLA-DRA1*0101, DRB1*0101 (DR1), DRB1*1501 (DR2), DRB1*0301 (DR3)

[3] = biological target: HLA-DRA1*0101, DRB1*0401 (DR4) (Homo sapiens, UniProt P01903+P01911, A100K/A169T/F76Y/I96L/K127E/L162R/M171V/N62H/P40V/Q125Y/R42H/S133A/S149N/S66Y/V115G/V209L/W38E); assay: DR4
Procedure: as §1, §2, §3, §4
Where the first naming reader finds the target: description_of_the_figure: recombinant HLA-DRA1*0101, DRB1*0101 (DR1), DRB1*1501 (DR2), DRB1*0301 (DR3), DRB1*0401 (DR4)

[4] = biological target: HLA-DRA1*0101, DRB1*0901 (DR9) (Homo sapiens, UniProt P01903+P01911, A100R/A103E/D57H/D86V/F55Y/F60I/F76Y/I96F/K127E/L162R/M171V/P40D/Q125H/Q99R/R33Q/R42F/S133A/S66N/T210M/V115G/W38K/Y107V/Y59G/Y89S); assay: DR9
Procedure: as §1, §2
(§5) FIG. 9 depicts IC50 (µM) values of peptides 9K1K, 17JK and 15N3K binding to the indicated HLA-DR molecules and competing with a known competitor peptide. Values should be compared only within each HLA-DR molecule. Low IC50 values (green) indicate the strongest binder per HLA-DR molecule. Highest values per HLA-DR molecule (red) are indicative of the lowest binder for that HLA-DR molecule. Intermediate values are indicated in orange. […] So, combining the peptides into a cocktail treatment, makes the treatment less restricted to a certain HLA-DR type.
as §4

[5] = biological target: HLA-DRA1*0101, DRB1*1101 (DR11) (Homo sapiens, UniProt P01903+P01911, A100R/A169T/A87E/I96F/K41T/L162R/M171V/P40S/Q125H/Q178H/Q39Y/Q99D/R42S/S66Y/T262R/V115G/W38E); assay: DR11
Procedure: as §1, §2, §3, §4
Where the first naming reader finds the target: description_of_the_figure: recombinant HLA-DRA1*0101, DRB1*0101 (DR1), DRB1*1501 (DR2), DRB1*0301 (DR3), DRB1*0401 (DR4), DRB1*1101 (DR11)

[6] = biological target: HLA-DRA1*0101, DRB1*0405 (DR4*05) (Homo sapiens, UniProt P01903+P01911, A100R/A169T/D86S/F76Y/I96L/K127E/L162R/M171V/N62H/P40V/Q125Y/R42H/S133A/S149N/S66Y/V115G/V209L/W38E); assay: DR4*05
Procedure: as §1
Head of the field: DR4*05
as §2, §5, §4

Chain of HLA-DRA1*0101, DRB1*0301 (DR3) (P01903 26-254 limits assumed, other chains not shown): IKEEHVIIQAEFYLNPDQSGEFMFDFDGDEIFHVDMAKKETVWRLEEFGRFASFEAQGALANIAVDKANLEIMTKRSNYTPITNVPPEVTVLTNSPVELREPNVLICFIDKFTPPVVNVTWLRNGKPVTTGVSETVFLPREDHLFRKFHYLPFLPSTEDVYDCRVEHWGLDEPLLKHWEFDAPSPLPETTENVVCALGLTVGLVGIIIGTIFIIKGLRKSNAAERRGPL
Chain of HLA-DRA1*0101, DRB1*1101 (DR11) (P01903 26-254 limits assumed, other chains not shown): as above

Row | Substance | Apitope [1] | IC50 [2] [µM] | IC50 [3] [µM] | IC50 [4] [µM] | IC50 [5] [µM] | IC50 [6] [µM]
1 | KKKVIFKKISRDKSVTIYLGKKK-NH2 [15N3K] | Yes | 14.7 | 0.84 | 18.4 | – | –
2 | KKKLTFRRDLYFSRVQVYKKK-NH2 [17JK] | – | – | – | – | 0.88 | 17.3
